Source: patent US4010264A, “7-[3-Substituted isoxazol-5-yl]-acetamido-cephalosporanic acids and their anti-bacterial use” (Koninklijke Nederlandsche Gist-en Spiritusfabriek N.V., priority 1970, dated 1977)
In brackets after ≈: the same amount, converted by molar mass. Counter-ions that a name gives are not always drawn.

Legend:
[1] = test system: Streptococcus faecalis L 80; test: MIC, agar serial dilution test; type: cell-based; conditions: Enterococcus faecalis, L80; Streptococcus faecalis L 80; 24 hours at 37° C; read-out: MIC
[2] = test system: Staphylococcus aureus A321; test: MIC, agar serial dilution test; type: cell-based; conditions: Staphylococcus aureus A321; 24 hours at 37° C; read-out: MIC
[3] = test system: Brucella melitensis A488; test: microbe, parasite or virus in culture; type: cell-based; conditions: A488, 24 h
[4] = test system: Staphylococcus aureus A 321; test: in vivo infection test in mice; conditions: A321, in Mus musculus
[5] = test system: Staphylococcus aureus A 2001; test: in vivo infection test in mice; conditions: A2001, in Mus musculus
[6] = test system: serum protein; test: binding to serum protein; type: in vitro ADME
[7] = test system: Staphylococcus aureus L160a (penicillinase-producing); test: MIC, agar serial dilution test; conditions: 24 h
[8] = test system: Klebsiella pneumoniae A809; test: MIC, agar serial dilution test; type: cell-based; conditions: Klebsiella pneumoniae A809; 24 hours at 37° C; read-out: MIC
[9] = test system: Staphylococcus aureus A 321; test: prophylactic experiment against an infection in mice; type: in vivo, female mice (Swiss)
Source text: B. Activity of the compound of example III in a prophylactic experiment against an infection with Staphylococcus aureus A 321. […] Administered doses: Tested compound dissolved in physiological NaCl-solution. Group A: one dose administered four hours before the intraperitoneal infection Group B: one dose administered two hours before the intraperitoneal infection.

[10] = test system: Streptococcus haemolyticus A266; test: MIC, agar serial dilution test; type: cell-based; conditions: Streptococcus haemolyticus A266; 24 hours at 37° C; read-out: MIC
[11] = test system: Staphylococcus aureus A55; test: MIC, agar serial dilution test; type: cell-based; conditions: Staphylococcus aureus A55; 24 hours at 37° C; read-out: MIC
[12] = test system: Pasteurella multocida A723; test: MIC, agar serial dilution test; type: cell-based; conditions: Pasteurella multocida A723; 24 hours at 37° C; read-out: MIC
[13] = test system: Staphylococcus aureus A 2000; test: in vivo infection test in mice; conditions: A2000, in Mus musculus
[14] = test system: Bacillus subtilis ATCC 6633; test: MIC, agar serial dilution test; type: cell-based; conditions: ATCC6633; Bacillus subtilis ATCC 6633; 24 hours at 37° C; read-out: MIC
[15] = test system: Staphylococcus aureus A355 (penicillinase-producing); test: MIC, agar serial dilution test; conditions: 24 h
[16] = test system: Diplococcus pneumoniae L 54; test: MIC, agar serial dilution test; type: cell-based; conditions: Streptococcus pneumoniae, L54; Diplococcus pneumoniae L 54; 24 hours at 37° C; read-out: MIC
[17] = in vivo; design: species or system rabbits; conditions: rabbit, im, 50 mg/kg; for blood level: 4 h
Source text: C. Serum levels of the tested compound and dicloxacillin.

[18] = test system: Proteus mirabilis O.T.; test: in vivo infection test in mice; conditions: in Mus musculus, ip
[19] = test system: test organisms; test: M.I.C. comparison with dicloxacillin; type: cell-based; conditions: compared with dicloxacillin
Experimental: Peak blood levels of the two drugs were reached after 1 hour with the tested compound giving levels of 5.4 μg/ml and dicloxacillin 27 μg/ml. After 4 hours, these levels were 2.2 μg/ml and 7.1 μg/ml respectively. […] However, the M.I.C. values for the tested compound were approximately 5 - 10 times less so that the overall result was better and this was reflected in the in vivo results.

[20] = binding to serum protein; type: in vitro ADME; conditions: serum protein; read-out: extent bound to serum protein
[21] = test system: Pseudomonas aeruginosa A 1058; test: in vivo infection test in mice; conditions: A1058, in Mus musculus, ip
[22] = test system: Salmonella typhi murium R 172; test: in vivo infection test in mice; conditions: Salmonella enterica, in Mus musculus, ip
[23] = A321, ip, 2 h, Group B: one dose two hours before i.p. infection, administration i.p.
[24] = A321, ip, 4 h, Group A: one dose four hours before i.p. infection, administration i.p.
[25] = A321, po, 2 h, Group B: one dose two hours before i.p. infection, administration per os
[26] = A321, po, 4 h, Group A: one dose four hours before i.p. infection, administration per os

SMILES: Cc1onc(-c2c(Cl)cccc2Cl)c1C(=O)N[C@@H]1C(=O)N2[C@@H]1SC(C)(C)[C@@H]2C(=O)O [Dicloxacillin, reference compound]
- MIC [1]: 12.5 µg/mL (≈ 26.6 µM)
- MIC [2]: 0.12 µg/mL (≈ 0.255 µM)
- MIC [3]: > 100 µg/mL
- ED50 ([4]; po): 92.6 mg/kg
- ED50 ([4]; sc): 126 mg/kg
- ED50 ([5]; ip): 1.71 mg/kg
- ED50 ([5]; po): 110 mg/kg
- ED50 ([5]; sc): 133 mg/kg
- binding to serum protein (in words) ([6]; serum protein): almost completely bound to serum protein
- MIC [7]: 0.25 µg/mL (≈ 0.532 µM)
- MIC [8]: 25 µg/mL (≈ 53.2 µM)
- ED50 [9, 23]: 46.5 to 100 mg/kg
- ED50 [9, 24]: < 21.5 mg/kg
- ED50 [9, 25]: 215 to 465 mg/kg
- ED50 [9, 26]: 46.5 to 100 mg/kg
- MIC [10]: 0.06 µg/mL (≈ 0.128 µM)
- MIC [11]: 0.06 µg/mL (≈ 0.128 µM)
- MIC [12]: 6 µg/mL (≈ 12.8 µM)
- ED50 ([13]; ip): 5.84 mg/kg
- ED50 ([13]; po): 92.6 mg/kg
- ED50 ([13]; sc): 92.6 mg/kg
- MIC [14]: 0.12 µg/mL (≈ 0.255 µM)
- MIC [15]: 0.5 µg/mL (≈ 1.06 µM)
- MIC [16]: 0.5 µg/mL (≈ 1.06 µM)
- Cmax at 1 h [17]: 27000 ng/mL
- Tmax [17]: 1 h
- concentration at 1 h [17]: 27000 ng/mL
- concentration at 2 h [17]: 18800 ng/mL
- concentration at 4 h [17]: 7100 ng/mL
- blood level [17]: 7100 ng/mL

SMILES: CC(=O)OCC1=C(C(=O)O)N2C(=O)C(NC(=O)Cc3cc(-c4c(Cl)cccc4Cl)no3)C2SC1 (stereo not shown) [Example III, Sodium salt of 7-{[3-(2,6-dichlorophenyl)-isoxazol-5-yl]acetamido}cephalosporanic acid]
- ED50 [18]: ~200 mg/kg
- M.I.C. values, times less than dicloxacillin [19]: 5 - 10 times
- MIC [1]: 0.5 µg/mL
- MIC [2]: ~0.007 µg/mL
- MIC [3]: 1 µg/mL
- ED50 ([4]; po): 61.9 mg/kg
- ED50 ([4]; sc): 5.11 mg/kg
- ED50 ([5]; ip): 2.87 mg/kg
- ED50 ([5]; po): ~200 mg/kg
- ED50 ([5]; sc): > 215 mg/kg
- amount of free drug in the serum compared with dicloxacillin ([6]; 50 mg/kg intramuscular, rabbits): of the same order
- fraction bound to serum protein [20]: ~0.5
- MIC [7]: 0.06 µg/mL
- ED50 [21]: > 215 mg/kg
- MIC [8]: 12.5 µg/mL
- ED50 [9, 23]: < 21.5 mg/kg
- ED50 [9, 24]: 21.5 to 46.5 mg/kg
- ED50 [9, 25]: < 21.5 mg/kg
- ED50 [9, 26]: ~465 mg/kg
- MIC [10]: ~0.007 µg/mL
- MIC [11]: 0.015 µg/mL
- MIC [12]: 1 µg/mL
- ED50 ([13]; ip): 1.78 mg/kg
- ED50 ([13]; po): > 215 mg/kg
- ED50 ([13]; sc): 75 mg/kg
- MIC [14]: ~0.007 µg/mL
- MIC [15]: 0.12 µg/mL
- MIC [16]: 0.007 µg/mL
- Cmax at 1 h [17]: 5400 ng/mL
- Tmax [17]: 1 h
- concentration at 1 h [17]: 5400 ng/mL
- concentration at 4 h [17]: 2200 ng/mL
- blood level [17]: 2200 ng/mL
- ED50 [22]: ~200 mg/kg
